The source of these data is US20090196912A1, “Pyridinylamines” (GPC Botech AG, priority 2004, published 2009).

What all share (assay): Generic kinase assay (33P-ATP, Myelin Basic Protein)
Common to all, as to format: biochemical

In one experiment the target is Abl (Homo sapiens, UniProt P00519). The following applies: 1 h; class symbol: % inhibition at 10 μM or IC50; read-out: Inhibitory effect on target Abl. As to the method: (§1) In order to determine the inhibitory effect of the compounds of the subject invention on various target enzymes a generic kinase assay was established.
Sequence of Abl (P00519 whole entry, species assumed): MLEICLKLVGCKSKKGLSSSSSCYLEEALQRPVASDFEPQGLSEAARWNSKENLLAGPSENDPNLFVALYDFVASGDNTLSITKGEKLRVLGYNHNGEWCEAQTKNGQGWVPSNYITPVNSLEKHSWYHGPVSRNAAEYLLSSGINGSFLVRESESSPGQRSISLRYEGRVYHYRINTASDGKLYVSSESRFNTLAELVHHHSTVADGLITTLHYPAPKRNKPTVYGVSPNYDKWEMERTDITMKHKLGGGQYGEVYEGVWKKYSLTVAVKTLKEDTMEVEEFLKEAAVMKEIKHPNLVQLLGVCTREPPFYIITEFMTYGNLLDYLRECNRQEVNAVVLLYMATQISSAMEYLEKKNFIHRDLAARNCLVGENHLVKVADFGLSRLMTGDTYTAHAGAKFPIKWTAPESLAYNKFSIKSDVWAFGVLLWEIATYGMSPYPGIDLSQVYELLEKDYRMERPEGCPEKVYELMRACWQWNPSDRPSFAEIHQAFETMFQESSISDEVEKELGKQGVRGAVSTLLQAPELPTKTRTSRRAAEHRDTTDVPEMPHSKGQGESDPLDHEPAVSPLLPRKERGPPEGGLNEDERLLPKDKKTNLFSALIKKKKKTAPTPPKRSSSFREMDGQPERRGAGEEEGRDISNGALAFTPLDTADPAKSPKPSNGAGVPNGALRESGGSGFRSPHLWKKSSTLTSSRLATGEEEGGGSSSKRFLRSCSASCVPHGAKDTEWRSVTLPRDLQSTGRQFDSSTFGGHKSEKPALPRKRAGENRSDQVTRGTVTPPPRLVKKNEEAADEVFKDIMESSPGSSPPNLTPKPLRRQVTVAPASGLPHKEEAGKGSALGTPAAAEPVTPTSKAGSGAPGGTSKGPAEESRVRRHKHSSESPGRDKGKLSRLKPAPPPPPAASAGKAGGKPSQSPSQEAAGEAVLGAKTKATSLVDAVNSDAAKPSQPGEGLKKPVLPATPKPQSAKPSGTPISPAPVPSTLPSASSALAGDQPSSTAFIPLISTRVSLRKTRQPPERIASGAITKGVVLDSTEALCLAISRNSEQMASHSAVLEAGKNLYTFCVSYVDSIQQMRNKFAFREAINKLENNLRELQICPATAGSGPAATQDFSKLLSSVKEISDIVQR
(§2) Reactions were performed in 96-Well U-bottom microtiter plates (Greiner Bio-One; Frickenhausen/Germany, Cat. No. 650161), hereinafter designated “Assay Plates”. 10 μl of a solution comprising 40 μM Myelin Basic Protein (Invitrogen; Carlsbad, Calif./USA; Cat. No. 13228-010) and 4 μM ATP in three-fold concentrated Reaction Buffer (60 mM Tris-HCl, pH 7.5; 30 mM MgCl2; 3 mM dithiothreitol) were added into each well of the Assay Plate. 10 μl of serial dilutions of the compounds of the subject invention, dissolved in 4% DMSO, were then added into each well, except for Positive Control. Wells (C+ wells) and Negative Control Wells (C− wells). 10 μl of 4% DMSO without compounds were added to C+ and C− wells. 10 μl of a 500 mM solution of EDTA in water was then added to C− wells. Then 10 μl of a solution containing 50 μCi/ml Adenosine 5′-[γ-^33P]triphosphate in water was added to each well. To start the reaction 10 μl of the kinase to be assayed was added to each well. The optimal amount of kinase in the assay was determined to be the amount which yields to a turn-over of about 10% of ATP. Assay Plates were incubated for one hour at room temperature. Then 10 μl of a 500 mM solution of EDTA in water was added to each well except C− wells. Samples were now ready for measurement.
(§3) Measurements were preformed in 96-Well MAPH-Filter Plates (Millipore; Billerica, Mass./United States; Cat. No. MAPHNOB50), hereinafter designated “Measurement Plates”. Measurement Plates were washed with 200 μl of a 0.75% H3PO4 solution per well. The H3PO4 solution was exhausted using a Millipore vacuum station. 60 μl of a 0.75% H3PO4 solution was then added into each well, followed by the transfer of 30 μl of each well from the Assay Plate into the corresponding wells of the Measurement Plate. The Measurement Plate was incubated for 30 minutes at room temperature. Thereafter each well was washed three times with 200 μl of a 0.75% H3PO4 solution using a Millipore vacuum station. 20 μl of scintillation liquid (Supermix Liquid Szintillator; Perkin Elmer, Wellesley. Mass./United States; Cat. No. 1200-439) was then added to each well of the Measurement Plate. The plate was sealed and stored for 30 minutes in the darkness before radioactivity was quantified in a MicroBeta Scintillation Counter (Perkin Elmer, Wellesley. Mass./United States).

Another experiment deals with EGFR (Homo sapiens, UniProt P00533). Conditions: class symbol: % inhibition at 10 μM or IC50. As to the method: as §1, §2, §3
Sequence of EGFR (P00533 25-1210, species assumed): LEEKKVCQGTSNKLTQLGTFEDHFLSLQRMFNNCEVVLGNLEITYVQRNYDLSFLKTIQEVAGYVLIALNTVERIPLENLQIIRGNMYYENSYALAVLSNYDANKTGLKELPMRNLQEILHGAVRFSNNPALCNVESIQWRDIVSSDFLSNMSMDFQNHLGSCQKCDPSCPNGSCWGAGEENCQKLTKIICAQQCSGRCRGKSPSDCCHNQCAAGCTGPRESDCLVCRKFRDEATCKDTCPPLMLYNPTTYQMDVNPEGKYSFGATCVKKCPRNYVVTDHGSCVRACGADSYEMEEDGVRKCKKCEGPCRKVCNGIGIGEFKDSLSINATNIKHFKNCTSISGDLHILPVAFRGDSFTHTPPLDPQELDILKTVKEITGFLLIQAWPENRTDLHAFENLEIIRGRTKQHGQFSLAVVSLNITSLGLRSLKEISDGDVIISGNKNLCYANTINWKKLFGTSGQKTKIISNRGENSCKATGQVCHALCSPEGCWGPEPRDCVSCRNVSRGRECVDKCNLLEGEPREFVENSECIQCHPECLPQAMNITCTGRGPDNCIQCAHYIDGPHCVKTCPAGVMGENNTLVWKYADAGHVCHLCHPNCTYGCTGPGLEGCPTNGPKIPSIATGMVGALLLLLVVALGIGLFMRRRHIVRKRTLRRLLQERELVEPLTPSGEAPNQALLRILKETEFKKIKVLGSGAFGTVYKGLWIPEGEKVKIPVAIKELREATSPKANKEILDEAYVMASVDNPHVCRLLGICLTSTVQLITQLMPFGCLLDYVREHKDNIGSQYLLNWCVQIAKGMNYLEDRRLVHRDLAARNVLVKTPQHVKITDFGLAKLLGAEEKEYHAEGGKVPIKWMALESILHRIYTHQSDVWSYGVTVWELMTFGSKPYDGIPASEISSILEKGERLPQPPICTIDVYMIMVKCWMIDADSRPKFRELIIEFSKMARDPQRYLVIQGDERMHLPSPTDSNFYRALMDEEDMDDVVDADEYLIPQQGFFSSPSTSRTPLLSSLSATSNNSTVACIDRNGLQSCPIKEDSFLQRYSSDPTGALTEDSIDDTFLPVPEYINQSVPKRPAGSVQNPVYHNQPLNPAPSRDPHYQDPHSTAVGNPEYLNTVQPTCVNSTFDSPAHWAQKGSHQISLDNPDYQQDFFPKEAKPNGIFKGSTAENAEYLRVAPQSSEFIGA
Another experiment concerns PDGFR. Conditions: class symbol: % inhibition at 10 μM or IC50. As to the method: as §1, §2, §3
A further experiment deals with RICK (Homo sapiens, UniProt O43353). Conditions: class symbol: % inhibition at 10 μM or IC50. Here is the method: as §1, §2, §3
Sequence of RICK (O43353 whole entry, species assumed): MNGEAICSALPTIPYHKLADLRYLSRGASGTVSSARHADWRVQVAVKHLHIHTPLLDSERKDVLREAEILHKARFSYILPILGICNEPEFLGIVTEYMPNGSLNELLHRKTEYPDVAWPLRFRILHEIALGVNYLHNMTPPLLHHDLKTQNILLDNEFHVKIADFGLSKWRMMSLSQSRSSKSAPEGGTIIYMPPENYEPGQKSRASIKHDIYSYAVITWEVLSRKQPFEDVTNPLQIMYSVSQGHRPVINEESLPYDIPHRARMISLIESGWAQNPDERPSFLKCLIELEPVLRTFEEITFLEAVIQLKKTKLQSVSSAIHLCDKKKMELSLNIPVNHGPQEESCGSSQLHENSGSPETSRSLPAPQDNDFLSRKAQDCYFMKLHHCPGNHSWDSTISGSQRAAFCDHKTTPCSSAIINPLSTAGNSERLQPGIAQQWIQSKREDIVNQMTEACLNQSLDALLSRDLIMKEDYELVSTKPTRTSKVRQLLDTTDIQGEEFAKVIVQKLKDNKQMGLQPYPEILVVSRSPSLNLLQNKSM
A further experiment addresses c-kit (Homo sapiens, UniProt P10721). The following applies: 1 h; class symbol: % inhibition at 10 μM or IC50; read-out: Inhibitory effect on target c-kit. As to the method: as §1, §2, §3
The next experiment addresses p56Lck (Homo sapiens, UniProt P06239). Conditions: class symbol: % inhibition at 10 μM or IC50; for inhibition at 10 µM: 1 h, read-out: Inhibitory effect on target p56Lck. Here is the method:
as §1, §2, §3

The next experiment has as its target cRaf (Homo sapiens, UniProt P04049). Conditions: class symbol: % inhibition at 10 μM or IC50; for inhibition at 10 µM: 1 h, read-out: Inhibitory effect on target cRaf. As to the method: as §1, §2, §3

Sequence of cRaf (P04049 whole entry, species assumed): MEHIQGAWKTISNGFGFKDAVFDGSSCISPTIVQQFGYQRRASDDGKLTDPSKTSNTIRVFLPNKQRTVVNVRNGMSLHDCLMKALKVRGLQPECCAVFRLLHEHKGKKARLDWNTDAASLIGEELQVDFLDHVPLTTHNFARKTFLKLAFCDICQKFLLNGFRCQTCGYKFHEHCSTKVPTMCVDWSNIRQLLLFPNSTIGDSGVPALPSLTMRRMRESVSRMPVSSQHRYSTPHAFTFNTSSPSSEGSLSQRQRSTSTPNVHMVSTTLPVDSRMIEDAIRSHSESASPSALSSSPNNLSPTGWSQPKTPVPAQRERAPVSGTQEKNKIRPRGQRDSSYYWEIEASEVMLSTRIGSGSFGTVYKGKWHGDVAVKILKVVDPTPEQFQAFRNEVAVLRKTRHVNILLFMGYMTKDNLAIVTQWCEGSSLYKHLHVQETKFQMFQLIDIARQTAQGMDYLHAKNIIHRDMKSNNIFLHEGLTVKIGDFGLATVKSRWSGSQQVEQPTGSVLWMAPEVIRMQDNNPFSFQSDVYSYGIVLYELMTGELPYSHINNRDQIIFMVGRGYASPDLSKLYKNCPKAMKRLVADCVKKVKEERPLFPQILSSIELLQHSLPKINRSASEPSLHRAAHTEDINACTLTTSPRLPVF
Sequence of c-kit (P10721 26-976): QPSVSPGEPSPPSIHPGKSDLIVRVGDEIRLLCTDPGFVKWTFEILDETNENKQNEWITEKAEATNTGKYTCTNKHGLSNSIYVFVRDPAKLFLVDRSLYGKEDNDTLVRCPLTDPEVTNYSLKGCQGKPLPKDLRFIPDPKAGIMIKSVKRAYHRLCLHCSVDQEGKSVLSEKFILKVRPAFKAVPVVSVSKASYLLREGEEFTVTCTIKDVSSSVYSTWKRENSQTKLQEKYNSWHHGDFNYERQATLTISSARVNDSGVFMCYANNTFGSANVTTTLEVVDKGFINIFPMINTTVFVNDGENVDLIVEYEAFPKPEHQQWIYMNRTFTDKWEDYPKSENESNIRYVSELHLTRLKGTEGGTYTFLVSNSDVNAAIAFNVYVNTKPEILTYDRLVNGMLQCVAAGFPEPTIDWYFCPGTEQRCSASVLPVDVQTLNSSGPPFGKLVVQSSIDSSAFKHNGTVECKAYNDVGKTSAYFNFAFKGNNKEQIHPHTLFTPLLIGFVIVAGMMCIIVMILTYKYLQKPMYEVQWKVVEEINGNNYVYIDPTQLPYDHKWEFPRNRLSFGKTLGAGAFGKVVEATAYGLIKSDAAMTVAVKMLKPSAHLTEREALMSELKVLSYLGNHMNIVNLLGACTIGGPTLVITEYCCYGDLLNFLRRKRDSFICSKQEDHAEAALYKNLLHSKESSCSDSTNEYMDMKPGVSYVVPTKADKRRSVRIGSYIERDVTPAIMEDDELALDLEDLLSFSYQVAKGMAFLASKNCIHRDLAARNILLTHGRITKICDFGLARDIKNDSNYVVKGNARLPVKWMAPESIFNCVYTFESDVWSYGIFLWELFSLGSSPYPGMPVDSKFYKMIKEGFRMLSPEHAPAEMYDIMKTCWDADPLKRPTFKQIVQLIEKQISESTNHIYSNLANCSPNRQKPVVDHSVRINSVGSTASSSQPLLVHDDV
Sequence of p56Lck (P06239 whole entry, species assumed): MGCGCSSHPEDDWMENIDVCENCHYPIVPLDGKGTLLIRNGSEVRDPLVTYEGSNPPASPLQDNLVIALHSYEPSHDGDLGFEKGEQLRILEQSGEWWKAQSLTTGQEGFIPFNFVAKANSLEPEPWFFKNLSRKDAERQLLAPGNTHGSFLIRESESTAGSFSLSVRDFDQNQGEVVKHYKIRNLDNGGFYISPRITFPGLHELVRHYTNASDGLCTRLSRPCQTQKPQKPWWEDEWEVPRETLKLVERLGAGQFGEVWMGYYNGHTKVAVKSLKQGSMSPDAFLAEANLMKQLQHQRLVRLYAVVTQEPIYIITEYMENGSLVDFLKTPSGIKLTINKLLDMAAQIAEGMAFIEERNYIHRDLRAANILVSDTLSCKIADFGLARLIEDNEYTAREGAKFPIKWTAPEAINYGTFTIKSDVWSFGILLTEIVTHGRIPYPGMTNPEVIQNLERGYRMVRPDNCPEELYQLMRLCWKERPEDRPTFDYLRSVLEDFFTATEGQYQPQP

Take `Oc1cccc(CNc2cncc(-c3cccnc3)c2)c1` [Compound 159, 3-([3,3′]Bipyridinyl-5-ylaminomethyl)-phenol]: the inhibition at 10 µM on Abl, at c-kit and at p56Lck was 50 to 90% in each case. In addition, the “Inhibitory effect on target EGFR” value at EGFR is given as “A (A: 50-90% inhibition at 10 μM enzyme concentration)”. In the experiment on PDGFR, the “Inhibitory effect on target PDGFR” value is “A (A: 50-90% inhibition at 10 μM enzyme concentration)”. In addition, the “Inhibitory effect on target RICK” value on RICK is recorded as “C (C: IC50 measured: <1 μM)”.
Turning to `CC(=O)Nc1cccc(-c2cncc(Nc3ccccc3)c2)c1` [Compound 194, N-[3-(5-Phenylamino-pyridin-3-yl)-phenyl]-acetamide], the “Inhibitory effect on target PDGFR” value in the experiment with PDGFR is “A (A: 50-90% inhibition at 10 μM enzyme concentration)”. The “Inhibitory effect on target RICK” value at RICK was “C (C: IC50 measured: <1 μM)”. Besides, the inhibition at 10 µM on c-kit was in the range of 50 to 90%.
On to `Oc1cccc(CNc2cncc(-c3cncnc3)c2)c1` [Compound 195, 3-[(5-Pyrimidin-5-yl-pyridin-3-ylamino)-methyl]-phenol], for which the “Inhibitory effect on target RICK” value at RICK is given as “C (C: IC50 measured: <1 μM)”. Moreover, the inhibition at 10 µM at c-kit, on cRaf and on p56Lck was 50 to 90% in each case.
With `CS(=O)(=O)c1ccc(-c2cncc(NCc3cccc(O)c3)c2)cc1` [Compound 206, 3-{[5-(4-Methanesulfonyl-phenyl)-pyridin-3-ylamino]-methyl}-phenol], the “Inhibitory effect on target RICK” value on RICK is reported as “C (C: IC50 measured: <1 μM)”. Also, the inhibition at 10 µM at c-kit and on p56Lck was 50 to 90% throughout.
Consider `COc1ccc(-c2cncc(NCc3cccc(O)c3)c2)cn1` [Compound 207, S—K6′-Methoxy-fS.S′lbipyridinyl-δ-ylaminoJ-mθthyll-phenol], for which the “Inhibitory effect on target RICK” value at RICK is recorded as “C (C: IC50 measured: <1 μM)”. Moreover, the “Inhibitory effect on target p56Lck” value on p56Lck is “A (A: 50-90% inhibition at 10 μM enzyme concentration)”.
In the case of `OCc1cccc(-c2cncc(NCc3cccc(O)c3)c2)c1` [Compound 216, 3-{[5-(3-Hydroxymethyl-phenyl)-pyridin-3-ylamino]-methyl}-phenol], the inhibition at 10 µM at Abl was 50 to 90%; on c-kit, > 90%; on cRaf, 50 to 90%; at p56Lck, 50 to 90%. For the same molecule, the “Inhibitory effect on target EGFR” value at EGFR is on record as “A (A: 50-90% inhibition at 10 μM enzyme concentration)”. Also, the “Inhibitory effect on target PDGFR” value in the experiment with PDGFR was “A (A: 50-90% inhibition at 10 μM enzyme concentration)”. Also, the “Inhibitory effect on target RICK” value on RICK was “C (C: IC50 measured: <1 μM)”.
For `O=C(NCCO)c1cccc(-c2cncc(NCc3cccc(O)c3)c2)c1` [Compound 217, 3-[5-(3-Hydroxy-benzylamino)-pyridin-3-yl]-N-(2-hydroxy-ethyl)-benzamide], the inhibition at 10 µM at Abl was 50 to 90%; on c-kit, > 90%; on p56Lck it was > 90%. In addition, the “Inhibitory effect on target EGFR” value on EGFR is “A (A: 50-90% inhibition at 10 μM enzyme concentration)”. In the experiment with PDGFR, the “Inhibitory effect on target PDGFR” value was “A (A: 50-90% inhibition at 10 μM enzyme concentration)”. Further, the “Inhibitory effect on target RICK” value on RICK is reported as “C (C: IC50 measured: <1 μM)”.
Take `Oc1cccc(CNc2cncc(-c3ccc(N4CCOCC4)cc3)c2)c1` [Compound 218, 3-{[5-(4-Morpholin-4-yl-phenyl)-pyridin-3-ylamino]-methyl}-phenol]: the “Inhibitory effect on target EGFR” value on EGFR is reported as “A (A: 50-90% inhibition at 10 μM enzyme concentration)”. Besides, the “Inhibitory effect on target PDGFR” value with PDGFR was “A (A: 50-90% inhibition at 10 μM enzyme concentration)”. Moreover, the “Inhibitory effect on target RICK” value on RICK was “C (C: IC50 measured: <1 μM)”. Besides, the inhibition at 10 µM is > 90% at c-kit and 50 to 90% at p56Lck.
Consider `COc1cncc(-c2cncc(NCc3cccc(O)c3)c2)c1` [Compound 222, 3-[(5′-Methoxy-[3,3′]bipyridinyl-5-ylamino)-methyl]-phenol], for which the inhibition at 10 µM at Abl, at c-kit and at p56Lck was 50 to 90% each time. In the experiment on PDGFR, the “Inhibitory effect on target PDGFR” value is “A (A: 50-90% inhibition at 10 μM enzyme concentration)”. At RICK, the “Inhibitory effect on target RICK” value is “C (C: IC50 measured: <1 μM)”.
Take `CN(C)CCNC(=O)c1cccc(-c2cncc(NCc3cccc(O)c3)c2)c1` [Compound 224, N-(2-Dimethylamino-ethyl)-3-[5-(3-hydroxy-benzylamino)-pyridin-3-yl]-benzamide]: the inhibition at 10 µM at Abl, at c-kit and on p56Lck was 50 to 90% each time. The “Inhibitory effect on target EGFR” value at EGFR was “A (A: 50-90% inhibition at 10 μM enzyme concentration)”. Moreover, the “Inhibitory effect on target PDGFR” value in the experiment with PDGFR is reported as “A (A: 50-90% inhibition at 10 μM enzyme concentration)”. Further, the “Inhibitory effect on target RICK” value on RICK is listed as “C (C: IC50 measured: <1 μM)”.
On to `CS(=O)(=O)Nc1cccc(-c2cncc(NCc3cccc(O)c3)c2)c1` [Compound 226, N-{3-[5-(3-Hydroxy-benzylamino)-pyridin-3-yl]-phenyl}-methanesulfonamide], for which the inhibition at 10 µM is 50 to 90% on Abl, > 90% at c-kit and 50 to 90% on p56Lck. At EGFR, the “Inhibitory effect on target EGFR” value is on record as “A (A: 50-90% inhibition at 10 μM enzyme concentration)”. The “Inhibitory effect on target PDGFR” value with PDGFR was “A (A: 50-90% inhibition at 10 μM enzyme concentration)”. Moreover, on RICK, the “Inhibitory effect on target RICK” value is reported as “C (C: IC50 measured: <1 μM)”.
With `COc1ccc(Nc2cncc(-c3cccc(NC(C)=O)c3)c2)cc1` [Compound 227, N-{3-[5-(4-Methoxy-phenylamino)-pyridin-3-yl]-phenyl}-acetamide], the “Inhibitory effect on target PDGFR” value with PDGFR was “A (A: 50-90% inhibition at 10 μM enzyme concentration)”. Further, the “Inhibitory effect on target RICK” value at RICK is listed as “C (C: IC50 measured: <1 μM)”. For the same molecule, the inhibition at 10 µM at c-kit was in the range of 50 to 90%.
For the molecule `Oc1cccc(CNc2cncc(-c3ccsc3)c2)c1` [Compound 228, 3-[(5-Thiophen-3-yl-pyridin-3-ylamino)-methyl]-phenol], the “Inhibitory effect on target PDGFR” value in the experiment on PDGFR was “A (A: 50-90% inhibition at 10 μM enzyme concentration)”. Moreover, the “Inhibitory effect on target RICK” value on RICK is given as “C (C: IC50 measured: <1 μM)”. Also, the inhibition at 10 µM on c-kit fell in the range of 50 to 90%.
As to `Oc1cccc(CCNc2cncc(-c3cccc(O)c3)c2)c1` [Compound 244, 3-{5-[2-(3-Hydroxy-phenyl)-ethylamino]-pyridin-3-yl}-phenol], the inhibition at 10 µM on Abl, on c-kit and on p56Lck was 50 to 90% in each case. Further, the “Inhibitory effect on target EGFR” value at EGFR is “B (B: >90% inhibition at 10 μM enzyme concentration)”. In addition, the “Inhibitory effect on target PDGFR” value in the experiment with PDGFR is reported as “A (A: 50-90% inhibition at 10 μM enzyme concentration)”. Moreover, the “Inhibitory effect on target RICK” value on RICK was “C (C: IC50 measured: <1 μM)”.
For `COC(=O)c1cccc(CNc2cncc(-c3cccc(O)c3)c2)c1` [Compound 264, 3-{[5-(3-Hydroxy-phenyl)-pyridin-3-ylamino]mθthyl}-benzoic acid methyl ester], the “Inhibitory effect on target EGFR” value at EGFR is given as “A (A: 50-90% inhibition at 10 μM enzyme concentration)”. In addition, the “Inhibitory effect on target PDGFR” value in the experiment with PDGFR is “A (A: 50-90% inhibition at 10 μM enzyme concentration)”. Also, on RICK, the “Inhibitory effect on target RICK” value is “A (A: 50-90% inhibition at 10 μM enzyme concentration)”. Further, the “Inhibitory effect on target cRaf” value at cRaf is “A (A: 50-90% inhibition at 10 μM enzyme concentration)”. Moreover, on p56Lck, the “Inhibitory effect on target p56Lck” value is “A (A: 50-90% inhibition at 10 μM enzyme concentration)”.
